Source: patent publication US8685956B2, “Compositions and methods for reducing the risk of agent-induced liver toxicity” (The Board of Trustees of The University of Illinois, priority 2009, dated 2014)
Read-outs that look alike come from different tables or passages of the source.

What was measured:
APAP poisoning = settings: cited from earlier work
Bhmt2 = target: T1, Bhmt2 (Homo sapiens, UniProt Q9H2M3); settings: Szegedi et al. 2008; cited from earlier work
T1 sequence (Q9H2M3 1-363): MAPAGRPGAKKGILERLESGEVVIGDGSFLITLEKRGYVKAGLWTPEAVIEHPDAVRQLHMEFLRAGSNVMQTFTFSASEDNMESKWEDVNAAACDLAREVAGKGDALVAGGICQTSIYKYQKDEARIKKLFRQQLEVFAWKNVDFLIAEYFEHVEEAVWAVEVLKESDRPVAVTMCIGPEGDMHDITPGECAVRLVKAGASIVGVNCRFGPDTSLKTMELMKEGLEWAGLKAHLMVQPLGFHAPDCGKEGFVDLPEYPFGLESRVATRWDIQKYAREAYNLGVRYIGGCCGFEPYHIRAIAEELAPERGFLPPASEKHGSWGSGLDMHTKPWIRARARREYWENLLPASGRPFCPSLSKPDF

[1] = tested on: APAP-induced liver toxicity in inbred strains with intact or deficient Bhmt2 activity; test: Strain-specific effect of SMM or SAM co-administration on APAP-induced liver toxicity; format: in vivo, mouse; settings: 3 hour after APAP
Description: The availability of two inbred strains with allelic variants that eliminate Bhmt2 enzyme activity enabled the hypothesis that Bhmt2 is a susceptibility factor for APAP-induced liver toxicity to be tested in vivo. The effect that co-administration of SAM or SMM, which act on sequential steps in the methionine/GSH biosynthesis pathway, had on APAP-induced liver toxicity in strains with intact or deficient Bhmt2 activity was analyzed.
Hepatic glutathione (GSH) and methionine levels and the serum ALT were measured 3 hour after APAP administration to inbred strains. The R and S in the lower panel indicate whether SMM or SAM co-administration should have a protective (Rescue) effect, or not have a beneficial (Susceptible) effect on APAP-induced liver toxicity, respectively.

[2] = tested on: APAP-induced hepatotoxicity; settings: cited from earlier work
inbred mouse strains = test: APAP-induced liver toxicity in a panel of inbred mouse strains (serum ALT activity); format: in vivo; settings: single 300 mg/kg intraperitoneal injection, 6 hour
Description: A panel of inbred mouse strains was studied using an integrated genetic, transcriptional and metabolomic approach in order to better characterize genetic factors affecting susceptibility to APAP-induced liver toxicity.
The liver toxic effect of APAP was assessed by measuring the serum alanine aminotransferase (ALT) activity after a single administration of toxic level (300 mg/kg, intraperitoneal injection) APAP.

hepatic glutathione = settings: after a toxic dose; James et al. 2003; cited from earlier work

CC(=O)N[C@@H](CS)C(=O)O [N-acetylcysteine]
tolerability (APAP poisoning; oral administration): poorly tolerated
antidote effect in severe and ongoing APAP poisoning (APAP poisoning; patients): effective antidote

C[S+](C)CC[C@H](N)C(=O)[O-] [SMM, S-methylmethionine]
Bhmt2 activity with the substance as methyl donor (Bhmt2): specific methyltransferase
effect of co-administration on APAP-induced liver toxicity (hepatic GSH, methionine, serum ALT) ([1]; strains with active Bhmt2 enzyme (Gly27 allele)): protective effect
effect of co-administration on APAP-induced liver toxicity (hepatic GSH, methionine, serum ALT) ([1]; strains with inactive (Ser27 allele) Bhmt2 enzyme): not in strains with inactive (Ser27 allele) enzyme

C[S+](CC[C@H](N)C(=O)O)C[C@H]1O[C@@H](n2cnc3c(N)ncnc32)[C@H](O)[C@@H]1O (stereo partly drawn) [SAM, S-adenosylmethionine]
hepatic GSH levels ([2]; C57BL/6J mice, APAP): preserve hepatic GSH levels
attenuation of APAP-induced hepatotoxicity ([2]; C57BL/6J mice): attenuate APAP-induced hepatotoxicity
attenuation of APAP-induced hepatotoxicity ([2]; previously shown): attenuate APAP-induced hepatotoxicity
Bhmt2 activity with the substance as methyl donor (Bhmt2): very low activity
effect of co-administration on APAP-induced liver toxicity (hepatic GSH, methionine, serum ALT) ([1]; all strains): protective effect in all strains

C[N+](C)(C)CC(=O)O [betaine]
Bhmt2 activity with the substance as methyl donor (Bhmt2): cannot use betaine as the methyl donor

CC(=O)Nc1ccc(O)cc1 [APAP, Acetaminophen]
liver injury (serum ALT activity) (inbred mouse strains; SJL/J mice): resistant phenotype
liver injury (serum alanine aminotransferase (ALT) activity) (inbred mouse strains; all strains other than SJL/J): Significant liver injury
depletion of hepatic glutathione (hepatic glutathione): ≤ 90%

CSCC[C@H](N)C(=O)O [methionine]
attenuation of APAP-induced hepatotoxicity ([2]; previously shown): attenuate APAP-induced hepatotoxicity
